Source: the NIST ThermoML archive (doi:10.1016/j.jct.2004.08.003)

Assays:
[1] = relative permittivity at various frequencies (dimensionless); xn = mol fraction of the nth substance listed; conditions: 101.3 kPa, Liquid, Frequency=1 MHz, HP4284A LCR Meter with HP16452A measuring cell
[2] = xn = mol fraction of the nth substance listed; conditions: 101.3 kPa, Liquid

COCCOCCOCCOC [2,5,8,11-tetraoxadodecane] + CCCCCCCCCCCC
Conditions | mass density, [2] [kg/m3] | relative permittivity, [1]
288.15 K, x1 = 0.0983 | 769.24 | –
288.15 K, x1 = 0.0993 | – | 2.3
288.15 K, x1 = 0.1981 | – | 2.61
288.15 K, x1 = 0.2007 | 788.2 | –
288.15 K, x1 = 0.2498 | – | 2.79
288.15 K, x1 = 0.2526 | 798.35 | –
288.15 K, x1 = 0.2974 | 807.41 | –
288.15 K, x1 = 0.3051 | – | 3.01
288.15 K, x1 = 0.396 | – | 3.4
288.15 K, x1 = 0.398 | 828.67 | –
288.15 K, x1 = 0.5011 | – | 3.92
288.15 K, x1 = 0.5097 | 853.81 | –
288.15 K, x1 = 0.5986 | 875.06 | –
288.15 K, x1 = 0.5991 | – | 4.51
288.15 K, x1 = 0.6981 | 900.28 | –
288.15 K, x1 = 0.7114 | – | 5.28
288.15 K, x1 = 0.7994 | – | 5.98
288.15 K, x1 = 0.8012 | 928.25 | –
288.15 K, x1 = 0.8996 | – | 6.87
288.15 K, x1 = 0.9009 | 957.48 | –
288.15 K, x1 = 0.9504 | – | 7.37
288.15 K, x1 = 0.951 | 973.13 | –
293.15 K, x1 = 0.0989 | 765.55 | –
293.15 K, x1 = 0.0992 | – | 2.3
293.15 K, x1 = 0.1969 | 783.56 | –
293.15 K, x1 = 0.2005 | – | 2.6
293.15 K, x1 = 0.2488 | 793.6 | –
293.15 K, x1 = 0.252 | – | 2.78
293.15 K, x1 = 0.2988 | – | 2.95
293.15 K, x1 = 0.3069 | 805.3 | –
293.15 K, x1 = 0.3978 | – | 3.37
293.15 K, x1 = 0.4006 | 825.05 | –
293.15 K, x1 = 0.5003 | – | 3.87
293.15 K, x1 = 0.5006 | 847.38 | –
293.15 K, x1 = 0.5981 | 870.51 | –
293.15 K, x1 = 0.6016 | – | 4.45
293.15 K, x1 = 0.698 | – | 5.08
293.15 K, x1 = 0.6989 | 895.89 | –
293.15 K, x1 = 0.7963 | 922.13 | –
293.15 K, x1 = 0.7995 | – | 5.85
293.15 K, x1 = 0.8997 | – | 6.73
293.15 K, x1 = 0.9032 | 953.28 | –
293.15 K, x1 = 0.9492 | – | 7.2
293.15 K, x1 = 0.95 | 967.84 | –
298.15 K, x1 = 0.088 | – | 2.25
298.15 K, x1 = 0.0984 | 761.73 | –
298.15 K, x1 = 0.1995 | 780.21 | –
298.15 K, x1 = 0.2006 | – | 2.58
298.15 K, x1 = 0.2494 | – | 2.74
298.15 K, x1 = 0.2511 | 790.16 | –
298.15 K, x1 = 0.3005 | 800.04 | –
298.15 K, x1 = 0.3046 | – | 2.95
298.15 K, x1 = 0.3988 | 820.63 | –
298.15 K, x1 = 0.4127 | – | 3.4
298.15 K, x1 = 0.496 | – | 3.8
298.15 K, x1 = 0.4974 | 842.53 | –
298.15 K, x1 = 0.5972 | – | 4.35
298.15 K, x1 = 0.598 | 866.25 | –
298.15 K, x1 = 0.6987 | – | 4.98
298.15 K, x1 = 0.6997 | 891.79 | –
298.15 K, x1 = 0.7954 | 917.48 | –
298.15 K, x1 = 0.8028 | – | 5.76
298.15 K, x1 = 0.9014 | 948.24 | –
298.15 K, x1 = 0.9022 | – | 6.61
298.15 K, x1 = 0.9504 | – | 7.07
298.15 K, x1 = 0.9513 | 963.73 | –
303.15 K, x1 = 0.0987 | 758.05 | –
303.15 K, x1 = 0.099 | – | 2.26
303.15 K, x1 = 0.1997 | – | 2.56
303.15 K, x1 = 0.2033 | 777 | –
303.15 K, x1 = 0.2498 | 785.94 | –
303.15 K, x1 = 0.2517 | – | 2.73
303.15 K, x1 = 0.2994 | 795.76 | 2.9
303.15 K, x1 = 0.3949 | 815.57 | –
303.15 K, x1 = 0.3976 | – | 3.3
303.15 K, x1 = 0.4991 | – | 3.76
303.15 K, x1 = 0.5002 | 838.84 | –
303.15 K, x1 = 0.5969 | – | 4.29
303.15 K, x1 = 0.5996 | 862.24 | –
303.15 K, x1 = 0.6979 | 886.84 | –
303.15 K, x1 = 0.699 | – | 4.94
303.15 K, x1 = 0.7996 | 914.11 | –
303.15 K, x1 = 0.8015 | – | 5.69
303.15 K, x1 = 0.9015 | 943.66 | –
303.15 K, x1 = 0.9058 | – | 6.55
303.15 K, x1 = 0.9494 | – | 6.96
303.15 K, x1 = 0.9509 | 958.94 | –
308.15 K, x1 = 0.0988 | – | 2.25
308.15 K, x1 = 0.1 | 754.59 | –
308.15 K, x1 = 0.1965 | – | 2.53
308.15 K, x1 = 0.1987 | 772.42 | –
308.15 K, x1 = 0.2471 | – | 2.7
308.15 K, x1 = 0.2494 | 782.08 | –
308.15 K, x1 = 0.2992 | 791.92 | –
308.15 K, x1 = 0.307 | – | 2.91
308.15 K, x1 = 0.3968 | 812.1 | –
308.15 K, x1 = 0.4071 | – | 3.31
308.15 K, x1 = 0.4983 | – | 3.73
308.15 K, x1 = 0.5058 | 836.19 | –
308.15 K, x1 = 0.5976 | 857.76 | –
308.15 K, x1 = 0.598 | – | 4.25
308.15 K, x1 = 0.6938 | – | 4.83
308.15 K, x1 = 0.6974 | 882.71 | –
308.15 K, x1 = 0.7997 | – | 5.57
308.15 K, x1 = 0.7998 | 910.17 | –
308.15 K, x1 = 0.9018 | – | 6.41
308.15 K, x1 = 0.9025 | 939.96 | –
308.15 K, x1 = 0.9501 | – | 6.86
308.15 K, x1 = 0.9512 | 955.04 | –
318.15 K, x1 = 0.0976 | 746.77 | –
318.15 K, x1 = 0.0989 | – | 2.23
318.15 K, x1 = 0.1979 | 764.58 | –
318.15 K, x1 = 0.2 | – | 2.51
318.15 K, x1 = 0.248 | 773.96 | –
318.15 K, x1 = 0.249 | – | 2.66
318.15 K, x1 = 0.297 | – | 2.82
318.15 K, x1 = 0.3015 | 784.34 | –
318.15 K, x1 = 0.3929 | – | 3.18
318.15 K, x1 = 0.4004 | 804.52 | –
318.15 K, x1 = 0.5013 | 826.47 | –
318.15 K, x1 = 0.5026 | – | 3.66
318.15 K, x1 = 0.6015 | – | 4.16
318.15 K, x1 = 0.6035 | 850.21 | –
318.15 K, x1 = 0.6959 | 873.06 | –
318.15 K, x1 = 0.7035 | – | 4.76
318.15 K, x1 = 0.7956 | 899.51 | –
318.15 K, x1 = 0.7989 | – | 5.4
318.15 K, x1 = 0.9004 | – | 6.19
318.15 K, x1 = 0.9025 | 930.16 | –
318.15 K, x1 = 0.949 | 944.39 | –
318.15 K, x1 = 0.9505 | – | 6.62
328.15 K, x1 = 0.0988 | – | 2.23
328.15 K, x1 = 0.0996 | 739.48 | –
328.15 K, x1 = 0.1986 | – | 2.49
328.15 K, x1 = 0.208 | 758.56 | –
328.15 K, x1 = 0.2483 | – | 2.62
328.15 K, x1 = 0.2561 | 767.51 | –
328.15 K, x1 = 0.3036 | 776.66 | –
328.15 K, x1 = 0.3062 | – | 2.81
328.15 K, x1 = 0.3961 | – | 3.14
328.15 K, x1 = 0.3988 | 795.88 | –
328.15 K, x1 = 0.4898 | 815.4 | –
328.15 K, x1 = 0.4986 | – | 3.56
328.15 K, x1 = 0.596 | – | 4.03
328.15 K, x1 = 0.5972 | 839.96 | –
328.15 K, x1 = 0.6906 | 862.83 | –
328.15 K, x1 = 0.6969 | – | 4.61
328.15 K, x1 = 0.7914 | – | 5.22
328.15 K, x1 = 0.8023 | 892.19 | –
328.15 K, x1 = 0.8935 | – | 5.99
328.15 K, x1 = 0.8988 | 919.73 | –
328.15 K, x1 = 0.9494 | – | 6.44
328.15 K, x1 = 0.9518 | 935.78 | –
